Consider one substance from patent US5763194A, “Cell separation device” (Unisearch Limited, priority 1993, dated 1998).

This data set concerns CD34+ cells. The experiment in a line: Separation of CD34+ cells from mobilised blood using shear fractionation and pre-treatment with chymopapain. Type of data set: cell-based, human (patient). An excerpt:
Cells bound to the semi-permeable substrate of the present invention may be pre-treated with a cell-releasing agent prior to removal by shear stress. The proteolytic enzyme chymopapain has been used to assist the removal of CD34^+ cells bound to a hollow fibre apparatus of the present invention.
A mononuclear cell concentrate was collected from a patient undergoing peripheral stem cell mobilisation with cyclophosphamide and G-CSF.
A Cuprophan hollow-fibre module (binding area ^~ 500 cm^2) was derivatised with antiCD34 monoclonal antibody (clone 9e5) using the hydrazide method as described previously with the following change in protocl. Cuprophan was derivatised with 25% ethylene glycol diglycidyl ether for 2 hours at room temperature.
A total of 1.7×10^8 cells in 4 mls of phosphate buffered saline with 0.5% human Ig and 0.5% bovine serum albumin added was injected into the vertically aligned module using blind-ended filtration. Residual cells in the inlet tubing were flushed with a further 0.5 ml of buffer (blind-ended filtration). The entire loading process took less than 8 minutes. Cells were loaded at approximately 340,000 cells/cm^2.
For cell deposition within the fibre lumen, the module was rotated into the horizontal position. After 4 minutes of settling time, the module was rotated around its long axis over a 12 minute period (2 full revolutions).
For cell recovery the module was returned to the vertical position. The CD34 depleted cell population was recovered in successive 10 ml fractions by incrementing shear stress up to 100 dynes/cm (Fraction numbers 1-5).
Following this, attached cells were incubated with the proteolytic enzyme Chymopapain (DISCASE™) at 400 pKat/ml. The incubation period lasted 20 minutes. During this time released cells were collected at low shear stress (0.2 dynes/cm^2, Fraction 6). Shear fractionation was then used to further purify treated cells. 10 ml fractions were collected at shear stresses of 10, 50 and 100 dynes/cm2.

[1] abbreviates: Fraction 6, chymopapain + 0.2 dynes/cm^2.
Where [2] appears, read: Fraction 7, after chymopapain, 10 dynes/cm^2.
Where [3] appears, read: Fraction 8, after chymopapain, 50 dynes/cm^2.
Setting [4] is: Fraction 9, after chymopapain, 100 dynes/cm^2.
Setting [5] is: Fraction 10, after chymopapain, 100 dynes/cm^2.
Setting [6] is: Fraction 11, after chymopapain, ~1000 dynes/cm^2 (3% dextran T2000).

Consider “chymopapain: proteolytic enzyme Chymopapain (DISCASE™)”, for which the “CD34+ incidence” value by setting is: under setting [1], 93.1%; under setting [2], 86.1%; under setting [3], 1.91%; under setting [4], 1.19%; under setting [5], 0.54%; under setting [6], 0.31%. Further, the “Number of CD34+ cells” value under setting [1] is 640,000; the “Number of CD34+ cells” value under setting [2] is listed as 1,770,000; the “Number of CD34+ cells” value under setting [3] is on record as 45,100; the “Number of CD34+ cells” value under setting [4] is 12,400; the “Number of CD34+ cells” value under setting [5] is reported as 3,060; the “Number of CD34+ cells” value under setting [6] is listed as 2,050. Moreover, the “Total number of cells” value runs as follows: under setting [1], 687,000; under setting [2], 2,060,000; under setting [3], 2,360,000; under setting [4], 1,040,000; under setting [5], 567,000; under setting [6], 660,000. The “CD34 antigen expression of released cells” value (flow cytometry (BG12-PE), chymopapain released cells) is reported as 150-1600 channels. In addition, under “fractions 6 and 7”, the “purity of fractions 6 and 7” value is recorded as “at least 90%”. Under “fractions 6 and 7 pooled”, the “separation yield (CD34+ cells recovered/CD34+ cells input)” value was found to be 53%.
